Earlier results in patent US20060292216A1, “Enteric delivery of (-)-hydroxycitric acid” (priority 2003, published 2006).

Tests used:
[1] = system: middle-aged rats fed a 30% fat diet
[2] = system: experimental animals fed a high-sugar diet; conditions: single large oral dose or two divided oral doses totaling one fourth of it
test subjects = conditions: chronic administration; resting and exercising conditions
[3] = system: human hepatoma cell line Hep G2
humans = conditions: conditions that elevate de novo lipogenesis

SMILES | protein and fat as percentage of body weight [1] | reduction in food consumption [2] | respiratory exchange ratio (test subjects) | cholesterol biosynthesis, of the control value, by incorporation from 3H2O [3] | incorporation of [1,5-14C]citrate into fatty acids and cholesterol ([3]; 0.5 mM or higher, 2.5 h and 18 h incubations) | fat synthesis and energy expenditure (humans)
O=C([O-])CC(O)(C(=O)[O-])C(O)C(=O)[O-].[K+].[K+].[K+] (stereo not drawn) [potassium HCA] | increased protein as a percentage of body weight while reducing fat as a percentage of body weight |  |  |  |  | 
O=C(O)CC(O)(C(=O)O)C(O)C(=O)O (single isomer, unassigned; (-)) [HCA, (−)-hydroxycitric acid] |  | ≥ 10% | significantly lower | 27 % of the control value | strongly inhibited | reduced fat synthesis and increased energy expenditure
